Results from ChEMBL document CHEMBL1201862, “PubChem BioAssay data set” (2004).
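How tested: cells in 96-well plates exposed to compound for 48 hours at five concentrations. Abbreviation: GI50, concentration required for 50% inhibition of growth.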 The source made the active and inactive calls. No stated cut-off is given here; in the data, active = GI50 up to about 1.1 µM and inactive = higher.

Key:
Assay in all cases: NCI-60 cell line screen, 48 h
NCI-H23 = test system: NCI-H23
SK-OV-3 = test system: SK-OV-3
NCI-H226 = test system: NCI-H226
SK-MEL-5 = test system: SK-MEL-5
RPMI-8226 = test system: RPMI-8226
SF-268 = test system: SF-268
HOP-62 = test system: HOP-62
OVCAR-5 = test system: OVCAR-5
HCT-116 = test system: HCT-116
A549 = test system: A549
MDA-MB-435 = test system: MDA-MB-435
TK-10 = test system: TK-10
MOLT-4 = test system: MOLT-4
UO-31 = test system: UO-31
UACC-257 = test system: UACC-257
SF-295 = test system: SF-295
MDA-MB-231 = test system: MDA-MB-231
OVCAR-8 = test system: OVCAR-8
SN12C = test system: SN12C
OVCAR-3 = test system: OVCAR-3

Measured: GI50

Nc1nc(Cl)c(/N=N/c2ccc(Cl)cc2)c(NCC2(CO)CCC(CCc3ccccc3)C2)n1 (stereo not given)
inactive: NCI-H23 1.26 µM | SK-OV-3 12 µM | NCI-H226 1.91 µM | SK-MEL-5 1.37 µM | RPMI-8226 12.1 µM | SF-268 6.22 µM | HOP-62 13.7 µM | OVCAR-5 15.4 µM | HCT-116 6.11 µM | A549 14.1 µM | MDA-MB-435 9.98 µM | TK-10 13.8 µM | MOLT-4 1.29 µM | UO-31 2.1 µM | UACC-257 10.6 µM | SF-295 11 µM | MDA-MB-231 12.2 µM | OVCAR-8 5.4 µM | SN12C 9.46 µM | OVCAR-3 11 µM
